Molecules are shown by their SMILES.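 Five compound concentrations were applied to cells in 96-well plates for 48 hours; endpoints were derived by simple linear interpolation of the resulting dose-response curve. Abbreviation: GI50, concentration required for 50% inhibition of growth.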 The source made the active and inactive calls. No stated cut-off is given here; in the data, active = GI50 up to about 1.1 µM and inactive = higher.

Common to all, as to assay: inhibition of tumour cell growth, NCI panel, 48 h
Assay [1] has as its system SK-MEL-5.
The subject of assay [2] is SK-MEL-28.
Assay [3] concerns MCF7.
The subject of assay [4] is HT-29.
Assay [5] deals with COLO 205.
In assay [6] the test system is SNB-19.
In assay [7] the test system is NCI-H460.
The subject of assay [8] is HCC 2998.
The subject of assay [9] is OVCAR-4.
The test system of assay [10] is K562.
Assay [11] concerns SK-MEL-2.
Assay [12] relates to NCI/ADR-RES.
Assay [13] relates to A498.
Assay [14] has as its system NCI-H23.
Assay [15] concerns MDA-N.
Assay [16] has as its system SK-OV-3.
In assay [17] the test system is SF-268.
The subject of assay [18] is DU-145.
Assay [19] has as its system SNB-75.

For the molecule `c1ccc([P+](c2ccccc2)(c2ccccc2)c2ccc(-c3ccc([P+](c4ccccc4)(c4ccccc4)c4ccccc4)cc3)cc2)cc1`, the GI50 is 1.56 µM (inactive) in assay [1]; 49.5 µM (inactive) in assay [2]; 36.8 µM (inactive) in [3]; 20.7 µM (inactive) in assay [4]; 16.4 µM (inactive) in [5]; 50.7 µM (inactive) in assay [6]. Besides, the GI50 in assay [7] was 27 µM (inactive); in assay [8] it was 47.4 µM (inactive); in assay [9], 21.5 µM (inactive); in assay [10], > 100 µM (inactive); in assay [11] it was 24.3 µM (inactive); in [12], > 100 µM (inactive). Besides, the GI50 in assay [13] is 3.97 µM (inactive); in assay [14], 21.9 µM (inactive); in assay [15], 29.3 µM (inactive); in [16], 43.2 µM (inactive); in assay [17] it was 58.5 µM (inactive); in assay [18], 63.8 µM (inactive).
For the molecule `C/C(=N\Nc1nc2ccccc2o1)c1cccc[n+]1[O-]`, the GI50 in assay [1] was 23.9 µM (inactive); in assay [2], 24.8 µM (inactive); in assay [3] it was 5.98 µM (inactive); in assay [4] it was 5.13 µM (inactive); in assay [5], 4.73 µM (inactive); in assay [6], 64.7 µM (inactive). Besides, the GI50 in assay [7] was 9.18 µM (inactive); in assay [8], 0.0769 µM (active); in assay [9], 5.45 µM (inactive); in [10], 7.23 µM (inactive); in [11] it was > 100 µM (inactive); in assay [12], 3.6 µM (inactive). In addition, the GI50 was 45.1 µM (inactive) in assay [13]; 26.6 µM (inactive) in assay [14]; 60.7 µM (inactive) in [15]; 22.5 µM (inactive) in assay [16]; 19.1 µM (inactive) in assay [17]; 27.8 µM (inactive) in [18].
For `CC(C)C1CSC2N1C(=O)C2(OCc1ccccc1)C1CC1` (centres undefined), the GI50 in assay [1], in assay [2], in assay [3], in assay [4], in assay [5] and in assay [6] was > 100 µM (inactive) each time. Besides, the GI50 in [7] is > 100 µM (inactive); in assay [8] it was > 100 µM (inactive); in assay [9], > 100 µM (inactive); in assay [10], 67.8 µM (inactive); in assay [19], 97.7 µM (inactive); in assay [12], 63.4 µM (inactive). The GI50 is 51.3 µM (inactive) in [13]; > 100 µM (inactive) in assay [14]; > 100 µM (inactive) in assay [15]; > 100 µM (inactive) in [16]; > 100 µM (inactive) in assay [17]; > 100 µM (inactive) in assay [18].
As to `C=CCCCCOC1C=CC(O)C(CO)O1` (centres undefined), the GI50 in assay [1], in assay [2], in assay [3], in assay [4], in assay [5] and in assay [6] was > 100 µM (inactive) in each case. Moreover, the GI50 in assay [7], in assay [8], in assay [9], in assay [10], in [11] and in [12] was > 100 µM (inactive) each time. Further, the GI50 in assay [13], in assay [14], in assay [15], in assay [16], in assay [17] and in assay [18] was > 100 µM (inactive) throughout.
As to `CN(C)c1ccc(/C=C2\C[C@H]3[C@@H]4CCc5cc(OCCN6CCCC6)ccc5[C@H]4CC[C@]3(C)C2=O)cc1`, the GI50 is 1.73 µM (inactive) in assay [1]; 1.53 µM (inactive) in assay [2]; 1.52 µM (inactive) in assay [3]; 0.288 µM (active) in assay [4]; 1.52 µM (inactive) in assay [5]; 1.89 µM (inactive) in assay [6]. For the same molecule, the GI50 was 1.59 µM (inactive) in assay [7]; 1.53 µM (inactive) in assay [8]; 1.63 µM (inactive) in assay [9]; 1.08 µM (active) in assay [10]; 1.71 µM (inactive) in assay [19]; 1.98 µM (inactive) in assay [11]. For the same molecule, the GI50 in assay [12] is 1.91 µM (inactive); in [13], 1.96 µM (inactive); in assay [14], 3.25 µM (inactive); in assay [15], 1.85 µM (inactive); in [16], 1.87 µM (inactive); in assay [18] it was 1.89 µM (inactive).
As to `C#CCNCC(=O)O`, the GI50 in [1], in assay [2], in [3], in assay [4], in assay [5] and in assay [6] was > 100 µM (inactive) each time. Further, the GI50 in assay [8], in [9], in [11], in assay [12], in assay [13] and in assay [14] was > 100 µM (inactive) each time. The GI50 in assay [15], in assay [16], in assay [17] and in assay [18] was > 100 µM (inactive) in each case.
For the molecule `CCOC1OC(CO)C(O)CC1n1ccc(=O)[nH]c1=O` (centres undefined), the GI50 in assay [1], in assay [2], in [3], in assay [4], in assay [5] and in [6] was > 100 µM (inactive) each time. In addition, the GI50 in [7], in assay [8], in assay [9], in assay [10], in assay [19] and in [11] was > 100 µM (inactive) each time. The GI50 in assay [12], in assay [13], in assay [14], in assay [15], in assay [17] and in assay [18] was > 100 µM (inactive) in each case.
In the case of `Cc1ccc(C(=O)/C=C2\Nc3ccccc3NC2=O)cc1`, the GI50 in [1] is 10.4 µM (inactive); in [2], 5.3 µM (inactive); in [3], 9.98 µM (inactive); in [4] it was 20 µM (inactive); in assay [5], > 100 µM (inactive); in [6], 10.6 µM (inactive). Also, the GI50 in [7] was 6.43 µM (inactive); in assay [8] it was 11.5 µM (inactive); in assay [9], 1.79 µM (inactive); in assay [10], > 100 µM (inactive); in assay [11], 4.11 µM (inactive); in [12], 5.13 µM (inactive). Further, the GI50 in [13] was 20.5 µM (inactive); in assay [14], 8.05 µM (inactive); in assay [15] it was 32.6 µM (inactive); in assay [16], 2.19 µM (inactive); in assay [17], 5.96 µM (inactive); in assay [18] it was 4.69 µM (inactive).
Take `CC(C)(C)OC(=O)[C@@H]1CCC(=S)N1Cc1ccccc1`: the GI50 in assay [1] was 47.4 µM (inactive); in assay [2], > 100 µM (inactive); in assay [3], > 100 µM (inactive); in [5], > 100 µM (inactive); in [6], > 100 µM (inactive); in [7] it was > 100 µM (inactive). The GI50 is > 100 µM (inactive) in assay [8]; > 100 µM (inactive) in assay [9]; > 100 µM (inactive) in [10]; 37.8 µM (inactive) in assay [19]; > 100 µM (inactive) in assay [11]; > 100 µM (inactive) in assay [12]. For the same molecule, the GI50 in [13] is > 100 µM (inactive); in assay [14] it was 70.1 µM (inactive); in assay [15] it was > 100 µM (inactive); in [16] it was > 100 µM (inactive); in [18] it was > 100 µM (inactive).
For `CCc1n[nH]c(=O)n1-c1ccncc1`, the GI50 in assay [1], in assay [2], in assay [3], in assay [4], in [5] and in assay [6] was > 100 µM (inactive) throughout. For the same molecule, the GI50 in assay [7], in assay [8], in assay [9], in assay [10], in assay [19] and in assay [12] was > 100 µM (inactive) throughout. The GI50 in [13], in [14], in assay [15], in assay [17] and in [18] was > 100 µM (inactive) each time.
As for `O=C(O)c1cc(O)c2c(c1)C([C@@H]1c3cccc(O)c3C(=O)c3c(O)cc(C(=O)O)cc31)c1cccc(O)c1C2=O` (some centres undefined), the GI50 in [1] was 17.6 µM (inactive); in [2] it was 33.2 µM (inactive); in assay [3], 37 µM (inactive); in assay [4] it was 96.2 µM (inactive); in assay [5], > 100 µM (inactive); in assay [6] it was 57 µM (inactive). Further, the GI50 in assay [7] was > 100 µM (inactive); in assay [8], 47.4 µM (inactive); in [9], > 100 µM (inactive); in [10] it was 23.8 µM (inactive); in assay [19], 25.3 µM (inactive); in [12], 43.8 µM (inactive). In addition, the GI50 in [13] is 22.7 µM (inactive); in assay [14], 30.4 µM (inactive); in assay [15], 20.3 µM (inactive); in assay [16], > 100 µM (inactive); in assay [17], 31.4 µM (inactive); in assay [18], > 100 µM (inactive).
